From PubChem BioAssay (NCI)
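Five concentrations, 48 hours, 96-well plates. GI50 is the concentration that inhibits growth by half. TGI: total growth inhibition.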

Tests used:
Experiment in all cases: NCI-60 cell line screen, 48 h
MOLT-4 leukemia = test system: MOLT-4 leukemia
IGROV1 ovarian = test system: IGROV1 ovarian
SK-MEL-5 melanoma = test system: SK-MEL-5 melanoma
NCI-H226 lung = test system: NCI-H226 lung
KM12 colon = test system: KM12 colon
DU-145 prostate = test system: DU-145 prostate
HCC-2998 colon = test system: HCC-2998 colon
UO-31 renal = test system: UO-31 renal
PC-3 prostate = test system: PC-3 prostate
LOX IMVI melanoma = test system: LOX IMVI melanoma
MCF7 breast = test system: MCF7 breast
NCI-H522 lung = test system: NCI-H522 lung
MDA-MB-435 = test system: MDA-MB-435
K-562 leukemia = test system: K-562 leukemia
OVCAR-4 ovarian = test system: OVCAR-4 ovarian
SF-539 CNS = test system: SF-539 CNS
MALME-3M melanoma = test system: MALME-3M melanoma
SK-OV-3 ovarian = test system: SK-OV-3 ovarian
NCI-H460 lung = test system: NCI-H460 lung
SF-295 CNS = test system: SF-295 CNS
HOP-62 NSCLC = test system: HOP-62 NSCLC
U251 CNS = test system: U251 CNS
M14 melanoma = test system: M14 melanoma
NCI/ADR-RES ovarian = test system: NCI/ADR-RES ovarian
RXF 393 renal = test system: RXF 393 renal
EKVX NSCLC = test system: EKVX NSCLC
SK-MEL-2 melanoma = test system: SK-MEL-2 melanoma
SNB-75 CNS = test system: SNB-75 CNS
HCT-15 colon = test system: HCT-15 colon

## O1[As]2O[As]3O[As]1O[As](O2)O3
MOLT-4 leukemia
  GI50: 1.28 µM
  TGI: 4.58 µM
IGROV1 ovarian
  GI50: 0.457 µM
  TGI: 2.7 µM
SK-MEL-5 melanoma
  GI50: 0.473 µM
  TGI: 1.75 µM
NCI-H226 lung
  GI50: 1.01 µM
  TGI: 4.64 µM
KM12 colon
  GI50: 3.31 µM
  TGI: 13.9 µM
DU-145 prostate
  GI50: 2.08 µM
  TGI: 7.21 µM
HCC-2998 colon
  GI50: 1.65 µM
  TGI: 3.6 µM
UO-31 renal
  GI50: 1.22 µM
  TGI: 2.84 µM
PC-3 prostate
  GI50: 0.781 µM
  TGI: 5.9 µM
LOX IMVI melanoma
  GI50: 0.657 µM
  TGI: 2.13 µM
MCF7 breast
  GI50: 0.388 µM
  TGI: 2.29 µM
NCI-H522 lung
  GI50: 0.256 µM
  TGI: 1.03 µM
MDA-MB-435
  GI50: 1.64 µM
  TGI: 7.69 µM
K-562 leukemia
  GI50: 0.317 µM
  TGI: 2.99 µM
OVCAR-4 ovarian
  GI50: 1.06 µM
  TGI: 11.9 µM
SF-539 CNS
  GI50: 0.347 µM
  TGI: 1.71 µM
MALME-3M melanoma
  GI50: 0.477 µM
  TGI: 2.08 µM
SK-OV-3 ovarian
  GI50: 2.8 µM
  TGI: 7 µM
NCI-H460 lung
  GI50: 2.03 µM
SF-295 CNS
  GI50: 2.63 µM
  TGI: 9 µM
HOP-62 NSCLC
  GI50: 1 µM
  TGI: 2.55 µM
U251 CNS
  GI50: 0.294 µM
  TGI: 1.25 µM
M14 melanoma
  GI50: 1.46 µM
  TGI: 4.21 µM
NCI/ADR-RES ovarian
  GI50: 1.43 µM
  TGI: 5.11 µM
RXF 393 renal
  GI50: 0.502 µM
  TGI: 1.85 µM
EKVX NSCLC
  GI50: 1.54 µM
  TGI: 7.12 µM
SK-MEL-2 melanoma
  GI50: 1.84 µM
  TGI: 16.7 µM
SNB-75 CNS
  GI50: 0.389 µM
  TGI: 3.34 µM
HCT-15 colon
  GI50: 1.08 µM
  TGI: 4.79 µM
